According to ChEMBL document CHEMBL4828707, “Discovery of phenyl-linked symmetric small molecules as inhibitors of the programmed cell death-1/programmed cell death-ligand 1 interaction” (Eur J Med Chem, 2021):

Key:
[1] = molecular target: T1, Programmed cell death protein 1/Programmed cell death 1 ligand 1 (Homo sapiens, UniProt Q9NZQ7); test: (§1) Inhibition of Tag2-PD1/Tag1-PD-L1 (unknown origin) protein-protein interaction preincubated for 15 mins followed by addition of anti-Tag1-Eu3+ and anti-Tag2-XL665 measured after 2 hrs in dark by HTRF assay; format: protein-complex assay
[2] = molecular target: T1, Programmed cell death protein 1/Programmed cell death 1 ligand 1; test: Inhibition of PD1/PDL1 protein-protein interaction in human Jurkat cells overexpressing PD1 co-cultured with human Hep3B cells expressing PDL1 protein assessed as increase of TCR-mediated luminiscence measured after 6 hrs by NFAT reporter assay; format: cell-based
[3] = molecular target: T2, Programmed cell death protein 1/Programmed cell death 1 ligand 1 (Homo sapiens, UniProt Q15116+Q9NZQ7); settings: time 6.0 hrs
hERG (KCNH2) = hERG (KCNH2) (Homo sapiens, UniProt Q12809); test: Inhibition of human ERG expressed in HEK293 cells at 10 uM measured by whole cell patch-clamp assay; format: cell-based; settings: HEK293 cells that express hERG
L02 = test: Cytotoxicity against human HL7702 cells at 2 to 10 uM measured after 48 hrs by CCK8 assay; format: cell-based; settings: l02, 48 h, dose 2-10 µM
[4] = Cytotoxicity against human PBMC at 3 uM measured after 48 hrs by CCK8 assay
[5] = Cytotoxicity against human HPDE6c7 cells at 2 to 10 uM measured after 48 hrs by CCK8 assay; format: cell-based; settings: hpde6c7, 48 h, dose 2-10 µM
[6] = molecular target: T2, Programmed cell death protein 1/Programmed cell death 1 ligand 1; test: as §1; format: protein-complex assay

T1 sequence (Q15116 whole entry): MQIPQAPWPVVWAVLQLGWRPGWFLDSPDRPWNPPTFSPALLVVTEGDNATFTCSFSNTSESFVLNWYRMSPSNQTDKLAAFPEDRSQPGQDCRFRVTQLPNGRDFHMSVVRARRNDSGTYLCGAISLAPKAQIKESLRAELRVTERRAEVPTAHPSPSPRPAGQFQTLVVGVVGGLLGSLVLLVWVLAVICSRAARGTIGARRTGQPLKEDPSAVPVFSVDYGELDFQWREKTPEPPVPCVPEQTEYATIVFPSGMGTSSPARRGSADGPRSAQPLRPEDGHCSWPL
T1 sequence (Q9NZQ7 whole entry): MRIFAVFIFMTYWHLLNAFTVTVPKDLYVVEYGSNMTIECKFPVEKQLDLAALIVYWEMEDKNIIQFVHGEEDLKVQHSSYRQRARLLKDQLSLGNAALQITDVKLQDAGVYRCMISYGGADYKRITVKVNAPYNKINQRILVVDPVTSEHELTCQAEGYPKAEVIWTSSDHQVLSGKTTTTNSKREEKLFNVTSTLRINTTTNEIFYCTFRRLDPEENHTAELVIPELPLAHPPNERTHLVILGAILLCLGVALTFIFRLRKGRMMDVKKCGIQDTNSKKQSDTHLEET
T2 sequence (Q15116 whole entry): as the sequence (Q15116 whole entry) above
T2 sequence (Q9NZQ7 whole entry): as the sequence (Q9NZQ7 whole entry) above
Chain of hERG (KCNH2) (Q12809 whole entry): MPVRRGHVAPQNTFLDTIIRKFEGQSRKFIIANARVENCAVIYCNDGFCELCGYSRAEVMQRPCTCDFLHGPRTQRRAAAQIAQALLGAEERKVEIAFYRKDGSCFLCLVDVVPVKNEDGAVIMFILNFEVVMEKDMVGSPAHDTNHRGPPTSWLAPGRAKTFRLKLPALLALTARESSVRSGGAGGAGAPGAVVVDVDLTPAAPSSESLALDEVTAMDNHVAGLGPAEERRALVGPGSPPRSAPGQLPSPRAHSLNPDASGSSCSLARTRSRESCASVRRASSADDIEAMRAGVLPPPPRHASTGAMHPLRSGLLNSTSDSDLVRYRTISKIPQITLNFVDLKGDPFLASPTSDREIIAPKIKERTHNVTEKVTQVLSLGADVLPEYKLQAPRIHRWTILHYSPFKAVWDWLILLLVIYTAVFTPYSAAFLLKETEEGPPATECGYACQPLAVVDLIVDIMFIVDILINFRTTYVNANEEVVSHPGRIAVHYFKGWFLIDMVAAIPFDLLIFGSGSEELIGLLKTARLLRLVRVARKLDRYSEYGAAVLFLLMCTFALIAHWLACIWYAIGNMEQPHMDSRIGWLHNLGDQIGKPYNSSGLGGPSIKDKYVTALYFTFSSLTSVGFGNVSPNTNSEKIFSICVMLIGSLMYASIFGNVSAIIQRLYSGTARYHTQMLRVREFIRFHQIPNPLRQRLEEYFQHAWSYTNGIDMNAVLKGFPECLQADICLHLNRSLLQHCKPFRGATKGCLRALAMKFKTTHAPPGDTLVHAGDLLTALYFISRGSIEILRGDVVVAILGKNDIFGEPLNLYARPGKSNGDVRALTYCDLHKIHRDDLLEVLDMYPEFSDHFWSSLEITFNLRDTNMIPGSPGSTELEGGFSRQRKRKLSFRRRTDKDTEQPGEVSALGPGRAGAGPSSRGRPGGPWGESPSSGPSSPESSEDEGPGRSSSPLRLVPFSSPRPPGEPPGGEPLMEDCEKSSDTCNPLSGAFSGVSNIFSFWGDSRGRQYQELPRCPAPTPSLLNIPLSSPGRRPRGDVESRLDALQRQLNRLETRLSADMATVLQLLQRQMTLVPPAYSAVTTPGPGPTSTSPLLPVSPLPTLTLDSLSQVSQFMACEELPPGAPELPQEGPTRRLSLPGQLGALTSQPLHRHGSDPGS

Row | SMILES | IC50 [1] [nM] | other results
1 | O=C(c1ccc(CNCCO)cc1)N1CCc2c(-c3cccc4c3CCN4C(=O)c3ccc(CNCCO)cc3)cccc21 | 18.6 | –
2 | Cc1c(-c2ccc3c(c2)OCCO3)cccc1-c1nnc(-c2ccc(CNCCO)cc2)o1 | > 1000 | –
3 | Cc1c(-c2ccc(CNCCO)cc2)cccc1-c1cccc(-c2ccc(CNCCO)cc2)c1C | 45.6 | –
4 | Cc1c(-c2ccc3c(c2)OCCO3)cccc1N1CCN(c2cccc(CNCCO)c2)C1=O | > 1000 | –
5 | COc1cc(-c2cccc(-c3cccc(-c4ccc(CNCC(O)C(=O)O)c(OC)c4)c3C)c2C)ccc1CNCC(O)C(=O)O (stereo not drawn) | 4.01 | EC50 [2]: 376 nM; RLU [3]: 27000; inhibition at 10 µM (hERG (KCNH2)): 7.72%; Activity (L02): Non-Toxic; Activity [4]: Non-Toxic; Activity [5]: Non-Toxic
6 | Cc1c(-c2ccc3c(c2)CCCN(CCO)C3)cccc1-c1ccc2c(c1)OCCO2 | – | IC50 [6]: Not Active
7 | Cc1c(-c2ccc3c(c2)OCCO3)cccc1N1Cc2cc(CNCCO)ccc2C1=O | > 1000 | –
8 | Cc1c(Nc2cc(-c3ccc(CNCCO)cc3)ccn2)cccc1-c1ccc2c(c1)OCCO2 | > 1000 | –
9 | Cc1c(Nc2cccc(-c3ccc(CNCCO)cc3)n2)cccc1-c1ccc2c(c1)OCCO2 | > 1000 | –
10 | O=C(c1ccc(CNCCO)cc1)N1CCCc2c(-c3ccc4c(c3)OCCO4)cccc21 | > 1000 | –
11 | COc1cc(-c2cccc(-c3cccc(-c4ccc(CNCC5CCC(=O)N5)c(OC)c4)c3C)c2C)ccc1CNCC1CCC(=O)N1 (stereo not drawn) | 139 | –
12 | Cc1c(-c2ccc(CNCCO)cc2)cccc1-c1ccc2c(c1)OCCO2 | 16.2 | inhibition at 10 µM (hERG (KCNH2)): 98%
13 | Cc1c(NC(=O)c2ccc(CNCCO)cn2)cccc1-c1ccc2c(c1)OCCO2 | 5.04 | –
14 | COc1cc(-c2cccc(-c3ccc4c(c3)OCCO4)c2C)ccc1CNCCO | – | inhibition at 10 µM (hERG (KCNH2)): 4.71%; IC50 [6]: Not Active
15 | O=C(c1ccc(CNCCO)cc1)n1ccc2c(-c3ccc4c(c3)OCCO4)cccc21 | > 1000 | –
16 | COc1cc(-c2cccc(-c3cccc(-c4ccc(CNC(CO)C(=O)O)c(OC)c4)c3C)c2C)ccc1CNC(CO)C(=O)O (stereo not drawn) | 3.9 | EC50 [2]: 775 nM; RLU [3]: 30600; inhibition at 10 µM (hERG (KCNH2)): -0.67%; Activity (L02): Non-Toxic; Activity [4]: Non-Toxic; Activity [5]: Non-Toxic
17 | Cc1c(-c2ccc3c(c2)NCC(=O)N(CCO)C3)cccc1-c1ccc2c(c1)OCCO2 | – | IC50 [6]: Not Active
18 | COc1cc(-c2cccc(-c3cccc(-c4ccc(CNC5CCOCC5)c(OC)c4)c3C)c2C)ccc1CNC1CCOCC1 | 34.4 | –
19 | COc1cc(-c2cccc(-c3cccc(-c4ccc(CN5CC(C(=O)O)C5)c(OC)c4)c3C)c2C)ccc1CN1CC(C(=O)O)C1 | 4.23 | EC50 [2]: 104 nM; RLU [3]: 35800; inhibition at 10 µM (hERG (KCNH2)): 3.93%; Activity (L02): Non-Toxic; Activity [4]: Non-Toxic; Activity [5]: Non-Toxic
20 | O=C(c1ccc(CNCCO)cc1)n1ccc2c(-c3cccc4c3ccn4C(=O)c3ccc(CNCCO)cc3)cccc21 | 309 | –
21 | Cc1c(-c2ccc3c(c2)OC(=O)N(CCO)C3)cccc1-c1ccc2c(c1)OCCO2 | – | IC50 [6]: Not Active
22 | Cc1c(-c2ccc(CNCCO)cn2)cccc1-c1cccc(-c2ccc(CNCCO)cn2)c1C | > 1000 | –

Row | SMILES | IC50 [1] [nM] | other results
23 | COc1cc(-c2cccc(-c3cccc(-c4ccc(CNC(CO)CO)c(OC)c4)c3C)c2C)ccc1CO | 48.7 | –
24 | Cc1c(-c2ccc3c(c2)OCCO3)cccc1-c1ccc(CNCCO)s1 | – | IC50 [6]: Not Active
25 | COc1cc(-c2cccc(-c3cccc(-c4ccc(CNC5CCCC5O)c(OC)c4)c3C)c2C)ccc1CNC1CCCC1O (stereo not drawn) | 36.4 | –
26 | COc1cc(-c2cccc(-c3cccc(-c4ccc(CO)c(OC)c4)c3C)c2C)ccc1CO | 481 | –
27 | Cc1c(-c2ccc3c(c2)OCCO3)cccc1-c1ccc(CNCCO)o1 | 191 | –
28 | Cc1c(-c2ccc3c(c2)OC(=O)N(CC(=O)O)C3)cccc1-c1ccc2c(c1)OCCO2 | – | IC50 [6]: Not Active
29 | Cc1c(-c2ccc3c(c2)OCCO3)cccc1N1CCN(c2ncc(CNCCO)s2)C1=O | > 1000 | –
30 | COc1cc(-c2cccc(-c3cccc(-c4ccc(CNCCO)c(OC)c4)c3C)c2C)ccc1CNCCO | 48.6 | –
31 | O=C(c1ccc(CNCCO)cc1)N1CCc2c(-c3ccc4c(c3)OCCO4)cccc21 | 150 | –
32 | Cc1c(-c2ccc3c(c2)OCCO3)cccc1N1CCN(c2ccc(CNCCO)cc2)C1=O | > 1000 | –
33 | Cc1c(NC(=O)c2ccc(CNCCO)nc2)cccc1-c1ccc2c(c1)OCCO2 | > 1000 | –
34 | Cc1c(-c2ccc3c(c2)OCCO3)cccc1N(C)C(=O)c1ccc(CNCCO)cn1 | 764 | –
35 | Cc1c(C(=O)Nc2ccc(CNCCO)cc2)cccc1-c1ccc2c(c1)OCCO2 | > 1000 | –
36 | COc1cc(-c2cccc(-c3cccc(-c4ccc(CN5CCCCC5C(=O)O)c(OC)c4)c3C)c2C)ccc1CO (stereo not drawn) | 472 | –
37 | COc1cc(-c2cccc(-c3cccc(-c4ccc(CNC(CO)CO)c(OC)c4)c3C)c2C)ccc1CNC(CO)CO | > 1000 | –
38 | Cc1c(NS(=O)(=O)c2ccc(CNCCO)cc2)cccc1-c1ccc2c(c1)OCCO2 | > 1000 | –
39 | Cc1c(NC(=O)c2ccc(CNCCO)cc2)cccc1-c1ccc2c(c1)OCCO2 | > 1000 | –
40 | Cc1c(-c2ccc3c(c2)OCCO3)cccc1-c1ccc(CNCCO)cn1 | 19.6 | –
41 | Cc1c(-c2ccc3c(c2)OCCO3)cccc1N1CCN(c2cccc(CNCCO)n2)C1=O | > 1000 | –
42 | Cc1c(NC(c2ccc(CNCCO)cc2)C(F)(F)F)cccc1-c1ccc2c(c1)OCCO2 (stereo not drawn) | > 1000 | –
43 | Cc1c(-c2ccc3c(c2)OCCO3)cccc1N1CCN(c2ccc(CNCCO)cn2)C1=O | > 1000 | –
